According to PubChem BioAssay (NCI):
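How tested: cells in 96-well plates exposed to compound for 48 hours at five concentrations. TGI denotes the concentration required for complete inhibition of growth.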

Legend:
Assay in all cases: inhibition of tumour cell growth, NCI panel, 48 h
A549 NSCLC = tested on: A549 NSCLC
U251 CNS = tested on: U251 CNS
SF-268 CNS = tested on: SF-268 CNS
LOX IMVI melanoma = tested on: LOX IMVI melanoma
ACHN renal = tested on: ACHN renal
NCI-H522 lung = tested on: NCI-H522 lung
T-47D breast = tested on: T-47D breast
CCRF-CEM leukemia = tested on: CCRF-CEM leukemia
HCT-15 colon = tested on: HCT-15 colon
RPMI-8226 leukemia = tested on: RPMI-8226 leukemia
MDA-MB-231 breast = tested on: MDA-MB-231 breast
SF-295 CNS = tested on: SF-295 CNS
MALME-3M melanoma = tested on: MALME-3M melanoma
OVCAR-5 ovarian = tested on: OVCAR-5 ovarian
IGROV1 ovarian = tested on: IGROV1 ovarian
HS 578T breast = tested on: HS 578T breast
SR leukemia = tested on: SR leukemia
MCF7 breast = tested on: MCF7 breast
EKVX NSCLC = tested on: EKVX NSCLC
K-562 leukemia = tested on: K-562 leukemia
UACC-62 melanoma = tested on: UACC-62 melanoma
KM12 colon = tested on: KM12 colon
PC-3 prostate = tested on: PC-3 prostate
OVCAR-4 ovarian = tested on: OVCAR-4 ovarian
OVCAR-3 ovarian = tested on: OVCAR-3 ovarian
BT-549 breast = tested on: BT-549 breast
HCT-116 colon = tested on: HCT-116 colon
SK-MEL-5 melanoma = tested on: SK-MEL-5 melanoma
SK-MEL-2 melanoma = tested on: SK-MEL-2 melanoma
SW-620 colon = tested on: SW-620 colon
NCI-H23 lung = tested on: NCI-H23 lung
MDA-N = tested on: MDA-N
OVCAR-8 ovarian = tested on: OVCAR-8 ovarian
TK-10 renal = tested on: TK-10 renal
M14 melanoma = tested on: M14 melanoma
HT29 colon = tested on: HT29 colon
HCC-2998 colon = tested on: HCC-2998 colon
A498 renal = tested on: A498 renal
SNB-19 CNS = tested on: SNB-19 CNS
DU-145 prostate = tested on: DU-145 prostate
786-0 renal = tested on: 786-0 renal
MOLT-4 leukemia = tested on: MOLT-4 leukemia
SN12C renal = tested on: SN12C renal
UO-31 renal = tested on: UO-31 renal
RXF 393 renal = tested on: RXF 393 renal
UACC-257 melanoma = tested on: UACC-257 melanoma
HOP-62 NSCLC = tested on: HOP-62 NSCLC
SNB-75 CNS = tested on: SNB-75 CNS
NCI-H226 lung = tested on: NCI-H226 lung
CAKI-1 renal = tested on: CAKI-1 renal
SK-MEL-28 melanoma = tested on: SK-MEL-28 melanoma
HOP-92 NSCLC = tested on: HOP-92 NSCLC
NCI-H460 lung = tested on: NCI-H460 lung
HL-60(TB) leukemia = tested on: HL-60(TB) leukemia
SF-539 CNS = tested on: SF-539 CNS
MDA-MB-435 = tested on: MDA-MB-435
COLO 205 colon = tested on: COLO 205 colon
NCI/ADR-RES ovarian = tested on: NCI/ADR-RES ovarian
SK-OV-3 ovarian = tested on: SK-OV-3 ovarian

Which results are given for `CCCC(=O)N(C)N=Nc1ccc(C(=O)OCC)cc1`?
TGI (A549 NSCLC): > 100 µM; TGI (U251 CNS): > 100 µM; TGI (SF-268 CNS): > 100 µM; TGI (LOX IMVI melanoma): > 100 µM; TGI (ACHN renal): > 100 µM; TGI (NCI-H522 lung): > 100 µM; TGI (T-47D breast): > 100 µM; TGI (CCRF-CEM leukemia): > 100 µM; TGI (HCT-15 colon): > 100 µM; TGI (RPMI-8226 leukemia): > 100 µM; TGI (MDA-MB-231 breast): > 100 µM; TGI (SF-295 CNS): > 100 µM; TGI (MALME-3M melanoma): > 100 µM; TGI (OVCAR-5 ovarian): > 100 µM; TGI (IGROV1 ovarian): > 100 µM; TGI (HS 578T breast): > 100 µM; TGI (SR leukemia): > 100 µM; TGI (MCF7 breast): > 100 µM; TGI (EKVX NSCLC): > 100 µM; TGI (K-562 leukemia): > 100 µM; TGI (UACC-62 melanoma): > 100 µM; TGI (KM12 colon): > 100 µM; TGI (PC-3 prostate): > 100 µM; TGI (OVCAR-4 ovarian): > 100 µM; TGI (OVCAR-3 ovarian): > 100 µM; TGI (BT-549 breast): > 100 µM; TGI (HCT-116 colon): > 100 µM; TGI (SK-MEL-5 melanoma): > 100 µM; TGI (SK-MEL-2 melanoma): > 100 µM; TGI (SW-620 colon): > 100 µM; TGI (NCI-H23 lung): > 100 µM; TGI (MDA-N): > 100 µM; TGI (OVCAR-8 ovarian): > 100 µM; TGI (TK-10 renal): > 100 µM; TGI (M14 melanoma): > 100 µM; TGI (HT29 colon): > 100 µM; TGI (HCC-2998 colon): > 100 µM; TGI (A498 renal): > 100 µM; TGI (SNB-19 CNS): > 100 µM; TGI (DU-145 prostate): > 100 µM; TGI (786-0 renal): > 100 µM; TGI (MOLT-4 leukemia): > 100 µM; TGI (SN12C renal): > 100 µM; TGI (UO-31 renal): > 100 µM; TGI (RXF 393 renal): > 100 µM; TGI (UACC-257 melanoma): > 100 µM; TGI (HOP-62 NSCLC): > 100 µM; TGI (SNB-75 CNS): > 100 µM; TGI (NCI-H226 lung): > 100 µM; TGI (CAKI-1 renal): > 100 µM; TGI (SK-MEL-28 melanoma): > 100 µM; TGI (HOP-92 NSCLC): > 100 µM; TGI (NCI-H460 lung): > 100 µM; TGI (HL-60(TB) leukemia): > 100 µM; TGI (SF-539 CNS): > 100 µM

What does the source list for `CC(=O)c1cc2c(s1)C(=O)c1ccsc1C2=O`?
TGI (A549 NSCLC): 4.2 µM; TGI (U251 CNS): 0.785 µM; TGI (SF-268 CNS): 1.01 µM; TGI (LOX IMVI melanoma): 0.0782 µM; TGI (ACHN renal): 0.626 µM; TGI (NCI-H522 lung): 0.486 µM; TGI (T-47D breast): 6.82 µM; TGI (CCRF-CEM leukemia): 1.3 µM; TGI (HCT-15 colon): 0.367 µM; TGI (RPMI-8226 leukemia): 49.7 µM; TGI (SF-295 CNS): 0.307 µM; TGI (MALME-3M melanoma): 0.332 µM; TGI (OVCAR-5 ovarian): 2.03 µM; TGI (IGROV1 ovarian): 3.4 µM; TGI (HS 578T breast): 0.561 µM; TGI (MCF7 breast): 1.68 µM; TGI (EKVX NSCLC): 3.24 µM; TGI (K-562 leukemia): 3.57 µM; TGI (UACC-62 melanoma): 0.688 µM; TGI (KM12 colon): 3.11 µM; TGI (PC-3 prostate): 1.15 µM; TGI (OVCAR-4 ovarian): 2.56 µM; TGI (OVCAR-3 ovarian): 0.729 µM; TGI (BT-549 breast): 0.356 µM; TGI (HCT-116 colon): 1.59 µM; TGI (SK-MEL-5 melanoma): 0.262 µM; TGI (SK-MEL-2 melanoma): 1.37 µM; TGI (SW-620 colon): 0.37 µM; TGI (NCI-H23 lung): 0.337 µM; TGI (MDA-N): 0.197 µM; TGI (OVCAR-8 ovarian): 1.59 µM; TGI (TK-10 renal): 3.69 µM; TGI (MDA-MB-435): 0.226 µM; TGI (M14 melanoma): 1.2 µM; TGI (HT29 colon): 4.19 µM; TGI (HCC-2998 colon): 3.17 µM; TGI (A498 renal): 12.6 µM; TGI (SNB-19 CNS): 1.02 µM; TGI (DU-145 prostate): 0.743 µM; TGI (786-0 renal): 4.16 µM; TGI (MOLT-4 leukemia): 2.17 µM; TGI (SN12C renal): 0.352 µM; TGI (UO-31 renal): 0.597 µM; TGI (RXF 393 renal): 0.683 µM; TGI (UACC-257 melanoma): 0.285 µM; TGI (HOP-62 NSCLC): 0.916 µM; TGI (SNB-75 CNS): 0.367 µM; TGI (NCI-H226 lung): 3.75 µM; TGI (CAKI-1 renal): 4.29 µM; TGI (COLO 205 colon): 40.5 µM; TGI (SK-MEL-28 melanoma): 0.361 µM; TGI (HOP-92 NSCLC): 5.04 µM; TGI (NCI/ADR-RES ovarian): 2.59 µM; TGI (SK-OV-3 ovarian): 5.38 µM; TGI (HL-60(TB) leukemia): 0.369 µM; TGI (SF-539 CNS): 0.649 µM
